Assay [1] concerns the target T1, Murine recombinant poly(ADP-ribose)-polymerase 2 (Mus musculus, UniProt O88554).
T1 construct: made in house
In words: autopoly(ADP-ribosyl)ation of PARP-2, [32P]NAD+ incorporation. It counts as biochemical. The note with it: for IC50: autopoly(ADP-ribosyl)ation, 0.6 mM NAD+; for remaining activity at 1000 µM / Residual PARP-2 activity: in the presence of 1 mM compound; for remaining activity at 1000 µM: read-out: Residual PARP-2 activity (converted). The text has this:
(§1) The oligonucleotides were purchased from Biosset (Novosibirsk, Russia). The reagents, solvents and the basic components of buffers were purchased from Sigma (St. Louis, MO, USA), Acros organics (Waltham, MA, USA) or Promega (Madison, WI, USA). γ–[^32P]-ATP and α–[^32P]-ATP (with specific activities of 5000 and 3000 Ci/mmol, respectively) were from the Laboratory of Biotechnology (Institute of Chemical Biology and Fundamental Medicine, Novosibirsk, Russia). T4 polynucleotide kinase was from Biosan (Novosibirsk, Russia). SUMO fusion expression vector pETHSUL (GenBank: EF205333.1) and pSUPER vector coding for the catalytic domain of the S. cerevisiae SUMO hydrolase dtUD1 were kindly provided by Dr. P. Loll (Drexel University, Philadelphia, USA). His6 and Strep-II double-tagged dtUD1 hydrolase was expressed and purified as described in ref. [81]. Human recombinant poly(ADP-ribose)-polymerase 1 (EC 2.4.2.30) was prepared as described previously. Murine recombinant poly(ADP-ribose)-polymerase 2 (EC 2.4.2.30) was purified as described previously. Plasmid encoding human PARP-3 was kindly provided by Dr. A. Ishchenko (Gustave Roussy, Université Paris-Saclay, France). Poly(ADP-ribose)-polymerase 3 (EC 2.4.2.30) was purified according to [6].
(§2) The reaction of autopoly(ADP-ribosyl)ation was carried out as follows: for PARP-1 50 mM tris-HCl, pH 8.0, 20 mM MgCl2, 150 mM NaCl, and 7 mM β-mercaptoethanol, activated DNA 2 OE/mL, 0.3 mM [^32P] NAD+ at 37 °C. The reaction was initiated by adding PARP-1 to 200 nM and the reaction mixtures were incubated for 1.5 min. For PARP-2: 50 mM tris-HCl, pH 8.0, 3 mM spermin, 150 mM NaCl, and 7 mM β-mercaptoethanol, activated DNA 2 OE/mL, 0.6 mM [^32P] NAD+ at 37 °C. The reaction was initiated by adding PARP-2 to 800 nM and the reaction mixtures were incubated for 5 min. The reaction was stopped by placing 10 μL aliquots onto Whatman 1 paper filters soaked with 5 % TCA. The filters were washed with 5% TCA for four times and dried in air after the removal of TCA with 90% ethanol. The incorporation of radioactivity into the product was calculated with a Tri-Carb 2800 scintillation counter (Perkin Elmer, Waltham, MA, USA) according to the Cherenkov method or using Typhoon FLA 9500 scanner (GE Healthcare, Chicago, IL, USA). To determine the IC50 value of inhibitors (concentration of the compound required reducing the enzyme activity by 50%), we studied the activity of the enzyme at different concentrations of inhibitors. Measurements were done in at least two independent experiments. IC50 values were calculated using the Origin Pro 8.0 software by nonlinear regression analysis.

Assay [2] concerns the target T2, Human recombinant poly(ADP-ribose)-polymerase 1 (Homo sapiens, UniProt P09874).
T2 construct: made in house
In words: autopoly(ADP-ribosyl)ation of PARP-1, [32P]NAD+ incorporation. The assay is classed as biochemical. The conditions noted are these: for IC50: autopoly(ADP-ribosyl)ation, 0.3 mM NAD+; for remaining activity at 1000 µM / Residual PARP-1 activity: in the presence of 1 mM compound; for remaining activity at 1000 µM: read-out: Residual PARP-1 activity (converted).
Description: as §1, §2

The text below walks through data of paper PMC6982223, “Design, Synthesis and Molecular Modeling Study of Conjugates of ADP and Morpholino Nucleosides as A Novel Class of Inhibitors of PARP-1, PARP-2 and PARP-3” (International Journal of Molecular Sciences, 2019).

SMILES strings stand for the structures.

T2 sequence (P09874 whole entry): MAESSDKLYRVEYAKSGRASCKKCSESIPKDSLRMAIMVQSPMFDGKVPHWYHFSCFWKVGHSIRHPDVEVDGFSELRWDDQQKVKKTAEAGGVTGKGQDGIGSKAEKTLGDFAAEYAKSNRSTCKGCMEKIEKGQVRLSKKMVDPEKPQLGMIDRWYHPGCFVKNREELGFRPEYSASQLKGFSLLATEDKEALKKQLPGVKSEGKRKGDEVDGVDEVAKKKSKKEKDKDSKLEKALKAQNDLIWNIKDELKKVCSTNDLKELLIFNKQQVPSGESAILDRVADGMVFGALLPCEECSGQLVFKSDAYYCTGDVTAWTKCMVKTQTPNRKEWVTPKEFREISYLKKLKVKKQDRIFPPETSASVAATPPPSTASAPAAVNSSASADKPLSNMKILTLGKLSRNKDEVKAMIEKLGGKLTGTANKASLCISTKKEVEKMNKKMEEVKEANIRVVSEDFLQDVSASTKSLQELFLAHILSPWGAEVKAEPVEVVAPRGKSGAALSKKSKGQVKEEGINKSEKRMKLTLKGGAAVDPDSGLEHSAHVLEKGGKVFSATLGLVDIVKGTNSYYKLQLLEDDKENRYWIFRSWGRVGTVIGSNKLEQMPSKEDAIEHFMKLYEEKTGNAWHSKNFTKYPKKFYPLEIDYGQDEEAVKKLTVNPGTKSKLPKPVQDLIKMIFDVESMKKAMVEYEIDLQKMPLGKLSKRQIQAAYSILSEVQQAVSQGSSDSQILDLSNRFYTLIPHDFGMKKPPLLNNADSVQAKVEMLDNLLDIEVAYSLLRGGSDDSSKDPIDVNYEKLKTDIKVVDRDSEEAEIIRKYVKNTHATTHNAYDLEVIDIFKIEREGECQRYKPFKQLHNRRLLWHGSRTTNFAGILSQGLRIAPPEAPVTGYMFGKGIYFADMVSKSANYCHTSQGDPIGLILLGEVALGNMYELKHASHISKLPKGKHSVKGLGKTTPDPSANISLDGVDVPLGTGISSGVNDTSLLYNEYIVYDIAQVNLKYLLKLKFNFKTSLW
T1 sequence (O88554 whole entry): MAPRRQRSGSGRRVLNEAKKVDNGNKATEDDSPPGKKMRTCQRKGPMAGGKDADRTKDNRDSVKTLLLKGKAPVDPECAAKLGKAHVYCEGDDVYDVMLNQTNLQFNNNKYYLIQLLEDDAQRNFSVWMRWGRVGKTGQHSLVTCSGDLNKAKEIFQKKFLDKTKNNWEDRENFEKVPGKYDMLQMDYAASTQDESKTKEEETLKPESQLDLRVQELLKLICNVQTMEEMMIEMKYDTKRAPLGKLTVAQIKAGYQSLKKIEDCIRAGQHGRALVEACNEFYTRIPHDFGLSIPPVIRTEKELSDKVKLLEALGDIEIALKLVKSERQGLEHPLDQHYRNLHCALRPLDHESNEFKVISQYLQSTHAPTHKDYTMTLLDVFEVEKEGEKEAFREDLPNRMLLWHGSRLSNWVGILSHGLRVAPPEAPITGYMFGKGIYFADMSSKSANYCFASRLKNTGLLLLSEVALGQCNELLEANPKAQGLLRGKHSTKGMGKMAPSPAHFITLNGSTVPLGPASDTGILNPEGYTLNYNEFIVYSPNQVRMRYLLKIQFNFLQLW

Usually IC50 stands for the concentration needed to halve the response being measured. `O=c1[nH]c(=O)n([C@@H]2O[C@H](CO)[C@@H](O)[C@H]2O)cc1Br` [Compound 5-Br-Urd, 5-Br-uridine, reference compound]: the concentration for half-maximal inhibition (IC50) in assay [1] came to 190 ± 16 µM; in assay [2], 244 ± 83 µM.

As for `Cc1cn(C2CNCC(COP(=O)(O)OP(=O)(O)OCC3OC(n4cnc5c(N)ncnc54)C(O)C3O)O2)c(=O)[nH]c1=O` (centres unmarked) [Compound 4T], the IC50 in assay [1] was 474 µM. In addition, in assay [2], the remaining activity at 1000 µM is 40%. As to `Nc1ncnc2c1ncn2[C@H]1CNC[C@@H](CO)O1` [Compound 11A], the remaining activity at 1000 µM in assay [1] was 90%; in assay [2], 82%.

`Nc1ncnc2c1ncn2C1OC(COP(=O)(O)OP(=O)(O)OCC2CNCC(n3ccc(=O)[nH]c3=O)O2)C(O)C1O` (centres unmarked) [Compound 4U]: the remaining activity at 1000 µM in assay [1] is 67%; in assay [2], 93%. Take `Nc1ccn([C@@H]2O[C@H](CO)[C@@H](O)[C@H]2O)c(=O)n1` [Cyd, reference compound]: the “Residual PARP-2 activity” value in assay [1] is recorded as 85% ± 4%. Besides, in assay [2], the “Residual PARP-1 activity” value was 81% ± 16%. `Cc1cn([C@@H]2O[C@H](CO)[C@@H](O)[C@H]2O)c(=O)[nH]c1=O` [rThd, reference compound]: the IC50 is 330 ± 61 µM in assay [1] and 277 ± 107 µM in assay [2]. Taken in the same sequence, the figures for `Cc1cn([C@H]2CNC[C@@H](CO)O2)c(=O)[nH]c1=O` [Compound 11T] were 114 ± 32 µM and 148 ± 53 µM. Take `Nc1ncnc2c1ncn2C1OC(COP(=O)(O)OP(=O)(O)NCC2CNCC(n3ccc(=O)[nH]c3=O)O2)C(O)C1O` (centres unmarked) [Compound 10U]: the remaining activity at 1000 µM in assay [1] is 33%; in assay [2] it was 89%. On to `Nc1nc2c(ncn2[C@H]2CNC[C@@H](CO)O2)c(=O)[nH]1` [Compound 11G], for which the remaining activity at 1000 µM in assay [1] is 64%. For `Nc1ccn(C2CNCC(CNP(=O)(O)OP(=O)(O)OCC3OC(n4cnc5c(N)ncnc54)C(O)C3O)O2)c(=O)n1` (centres unmarked) [Compound 10C], the remaining activity at 1000 µM in assay [1] is 34.5%; in assay [2], 87.5%. The corresponding values for `Nc1ccn(C2CNCC(COP(=O)(O)OP(=O)(O)OCC3OC(n4cnc5c(N)ncnc54)C(O)C3O)O2)c(=O)n1` (centres unmarked) [Compound 4C] are 66% and 96%. Turning to `O=c1[nH]c(=O)n([C@@H]2O[C@H](CO)[C@@H](O)[C@H]2O)cc1Cl` [Compound 5-Cl-Urd, 5-Cl-uridine, reference compound], the IC50 in assay [1] worked out at 196 ± 25 µM. In addition, the “Residual PARP-1 activity” value in assay [2] was 82% ±17%. Take `O=c1ccn([C@@H]2O[C@H](CO)[C@@H](O)[C@H]2O)c(=O)[nH]1` [Urd, reference compound]: the “Residual PARP-2 activity” value in assay [1] is given as 96% ± 10%. As for `Nc1nc2c(ncn2[C@@H]2O[C@H](CO)[C@@H](O)[C@H]2O)c(=O)[nH]1` [Guo, reference compound], in assay [1], the “Residual PARP-2 activity” value was 46% ± 25%. Moreover, in assay [2], the “Residual PARP-1 activity” value is given as 60% ± 13%.

As to `O=c1[nH]c(=O)n([C@H]2CNC[C@@H](CO)O2)cc1Cl` [Compound 11ClU], the results for the IC50 in assay [1] and in assay [2] were 378 µM and 233 ± 25 µM, respectively. Take `Nc1ccn([C@H]2CNC[C@@H](CO)O2)c(=O)n1` [Compound 11C]: the remaining activity at 1000 µM in assay [1] is 58%. With `Nc1ncnc2c1ncn2C1OC(COP(=O)(O)OP(=O)(O)OCC2CNCC(n3cc(Cl)c(=O)[nH]c3=O)O2)C(O)C1O` (centres unmarked) [Compound 4ClU], the remaining activity at 1000 µM in assay [1] was 46.8%; in assay [2], 57.5%. As to `Nc1ncnc2c1ncn2C1OC(COP(=O)(O)OP(=O)(O)OCC2CNCC(n3cc(Br)c(=O)[nH]c3=O)O2)C(O)C1O` (centres unmarked) [Compound 4BrU], in assay [1], the IC50 is 474 µM. For the same molecule, the remaining activity at 1000 µM in assay [2] was 36%. Regarding `O=c1[nH]c(=O)n([C@H]2CNC[C@@H](CO)O2)cc1Br` [Compound 11BrU], the IC50 turned out to be 210 ± 48 µM in assay [1] and 61 ± 16 µM in assay [2]. Taken in the same sequence, the figures for `O=c1[nH]c(=O)n([C@@H]2O[C@H](CO)[C@@H](O)[C@H]2O)cc1I` [Compound 5-I-Urd, 5-I-uridine, reference compound] were 26.5 ± 3.5 µM and 49 ± 9 µM.

For `Cc1cn(C2CNCC(CNP(=O)(O)OP(=O)(O)OCC3OC(n4cnc5c(N)ncnc54)C(O)C3O)O2)c(=O)[nH]c1=O` (centres unmarked) [Compound 10T], the results for the IC50 in assay [1] and in assay [2] were 136 µM and 220 µM, respectively. In the case of `Nc1ncnc2c1ncn2C1OC(COP(=O)(O)OP(=O)(O)NCC2CNCC(n3cc(Br)c(=O)[nH]c3=O)O2)C(O)C1O` (centres unmarked) [Compound 10BrU], the IC50 in assay [1] is 254 µM. Moreover, the remaining activity at 1000 µM in assay [2] is 60%.

For the molecule `Nc1nc2c(ncn2C2CNCC(COP(=O)(O)OP(=O)(O)OCC3OC(n4cnc5c(N)ncnc54)C(O)C3O)O2)c(=O)[nH]1` (centres unmarked) [Compound 4G], the remaining activity at 1000 µM in assay [1] is 34%; in assay [2], 45.5%. Take `O=c1ccn([C@H]2CNC[C@@H](CO)O2)c(=O)[nH]1` [Compound 11U]: the remaining activity at 1000 µM was 97% in assay [1] and 91% in assay [2]. Consider `Nc1ncnc2c1ncn2C1CNCC(COP(=O)(O)OP(=O)(O)OCC2OC(n3cnc4c(N)ncnc43)C(O)C2O)O1` (centres unmarked) [Compound 4A], for which the IC50 in assay [1] was found to be 421 ± 6 µM. In addition, the remaining activity at 1000 µM in assay [2] is 80%. For `Nc1ncnc2c1ncn2C1OC(COP(=O)(O)OP(=O)(O)NCC2CNCC(n3cc(Cl)c(=O)[nH]c3=O)O2)C(O)C1O` (centres unmarked) [Compound 10ClU], the remaining activity at 1000 µM was 47% in assay [1] and 46% in assay [2].

Take `Nc1ncnc2c1ncn2[C@@H]1O[C@H](CO)[C@@H](O)[C@H]1O` [Ado, reference compound]: the “Residual PARP-2 activity” value in assay [1] was 86% ± 1%. The “Residual PARP-1 activity” value in assay [2] is given as 77% ± 21%. For the molecule `Nc1nc2c(ncn2C2CNCC(CNP(=O)(O)OP(=O)(O)OCC3OC(n4cnc5c(N)ncnc54)C(O)C3O)O2)c(=O)[nH]1` (centres unmarked) [Compound 10G], in assay [1], the IC50 is 224 µM. The remaining activity at 1000 µM in assay [2] is 74%.
